The values below come from patent US20110268711A1, “PANCREATIC STELLATE CELL SPECIFIC PROMOTER AND USES THEREOF” (AGENCY FOR SCIENCE, TECHNOLOGY AND RESEARCH, priority 2007, published 2011).

Entries after “also recorded” stand apart in the source; their conditions may differ. Like-named read-outs stand apart in the source and are kept apart here.

The test system of the experiment is 2.2-kb hGFAP promoter (GFAP-LacZ transgene) in SAM-K cells. In kind it is cell-based. As to conditions: for induction of GFAP-lacZ transgene expression (β-Gal activity) by exogenous cytokines: TGF-β 1 and 10 ng/ml, PDGF-BB 10 ng/ml, TNF-α 10 ng/ml, 24, 32, 48 and 60 hours after treatment; for decrease of relative β-Gal activity / decrease in β-Gal activity: vs 0.2% DMSO control; for decrease in β-Gal activity: kinase inhibitor 10 μM. As to the method:
Transfection and isolation of stable cell lines: The 2.2-kb hGFAP-LacZ (Maubach, G., et al., World J Gastroenterol, 2006, 12(5): 723-30) or the 2.2-kb hGFAP-DsRed plasmid was used to transfect PSC lines, using LIPOFECTAMINE™ 2000 (Invitrogen, CA, USA) according to the manufacturer's instructions. DsRed expression was identified under fluorescence microscope (Leica, Wetzlar, Germany). To isolate the stable clones expressing GFAPLacZ in SAM-K cell line, 24 hours after transfection, the cell culture medium was changed into medium containing Zeocin (500 μg/ml, Invitrogen, CA, USA). The single clones were isolated by dilution in the 96 well plates, the positive β-galactosidase (β-Gal) clones were identified by β-Gal staining kit from Invitrogen (CA, USA). Stable clones were maintained in culture medium containing 250 μg/ml Zeocin.
Treatment of PSCs with cell signaling inhibitors: Before treatment with different factors, SAM-K cells stably expressing the GFAP-LacZ at 70-80% confluence were starved in 0.5% FBS overnight, TGF-β (1 ng/ml, 10 ng/ml), PDBF-BB (10 ng/ml), and TNF-α (10 ng/ml) treatments were carried out at different time points, PBS buffer (0.2%) treatment served as control. Kinase inhibitors (10 μM), including LY 294002, U0126, SP600125, SB 203580, retinol and its metabolites, including retinol, 9-RA, ATRA, were applied to the cell culture medium at both 2 μM and 5 μM concentrations. Treatment in 0.2% DMSO served as control. The transgenic β-Gal activity was quantified at various times following treatment.
To obtain cryostat sections, the pancreas was removed from both GFAP-LacZ transgenic mouse and wild type mouse of the same FVB/N genetic background, and were fixed in 4% PFA fixative for 30 minutes. The fixed tissues were infiltrated overnight with 30% sucrose. Small pieces of tissue were mounted in OCT medium, and 14-μm sections were collected onto POLYSINE™ slides (Menzel GmbH & Co KG, Braunschweig, Germany). The expression of lacZ gene was detected using a staining kit from Invitrogen. The sections were stained with X-gal substrate overnight at room temperature, and subsequently counter-stained with eosin, prior to being mounted on slides with HYDROMOUNT™ (National diagnostics, Georgia, USA). To quantify the GFAP-LacZ expression, the β-Gal activity in the total cell extracts was measured with an enzymatic assay kit (Promega, WI, USA).
Statistical analysis: All quantitative results were presented as mean±SE; data were analyzed with Student t-test.

Turning to “TGF-β: recombinant TGF-β1 from R&D, pro-fibrogenic cytokine”, the “induction of GFAP-lacZ transgene expression (β-Gal activity) by exogenous cytokines” value (“induction” below) is on record as “None of the treatments specifically induced transgene expression; also recorded: No significant change in enzymatic activity”.
Turning to `CC1=C(/C=C/C(C)=C\C=C\C(C)=C\C(=O)O)C(C)(C)CCC1` [9-RA, 9-cis retinoic acid], the “decrease of relative β-Gal activity” value is reported as “about 44%” (2 μM, 24 hours after treatment); 37% (2 μM, 48 hours after treatment); “about 48%” (5 μM, 24 hours after treatment); “about 46%” (5 μM, 48 hours after treatment).
As for `O=c1cc(N2CCOCC2)oc2c(-c3ccccc3)cccc12` [LY 294002], the “decrease in β-Gal activity” value reads like this: (24 hours after treatment) ~19%; (48 hours after treatment) “about 15%”.
With `Oc1c2ccccc2c2c3c(cccc13)N=N2` [SP 600125], the “decrease in β-Gal activity” value is reported as “about 25%” (24 hours after treatment) and “about 10%” (48 hours after treatment).
For the molecule `CC1=C(/C=C/C(C)=C/C=C/C(C)=C/CO)C(C)(C)CCC1` [retinol], the “decrease of relative β-Gal activity” value runs as follows: (2 μM, 24 hours after treatment) ~33%; (2 μM, 48 hours after treatment) 49%; (5 μM, 24 hours after treatment) ~38%; (5 μM, 48 hours after treatment) “about 48%”.
Regarding TNF-α, the “induction” value is recorded as “None of the treatments specifically induced transgene expression; also recorded: No significant change in enzymatic activity”.
Turning to `N#CC(=C(/N)Sc1ccccc1N)/C(C#N)=C(\N)Sc1ccccc1N` [U0126], the “decrease in β-Gal activity” value (24 hours after treatment) is given as “approximately 40%” and the “decrease in β-Gal activity” value (48 hours after treatment) was “about 15%”.
On the same counts, the results for `C[S+]([O-])c1ccc(-c2nc(-c3ccncc3)c(-c3ccc(F)cc3)[nH]2)cc1` (centres unmarked) [SB 203580] are “not as significant” and “no significant effects”.
As for `CC1=C(/C=C/C(C)=C/C=C/C(C)=C/C(=O)O)C(C)(C)CCC1` [ATRA, all-trans retinoic acid], the “decrease of relative β-Gal activity” value runs as follows: (2 μM, 24 hours after treatment) ~42%; (2 μM, 48 hours after treatment) 33%; (5 μM, 24 hours after treatment) ~42%; (5 μM, 48 hours after treatment) ~31%.

B1: PDGF-BB: recombinant platelet derived growth factor-BB from R&D (protein, UniProt P01127 82-190, looked up)
Platelet-derived growth …: SLGSLTIAEPAMIAECKTRTEVFEISRRLIDRTNANFLVWPPCVEVQRCSGCCNNRNVQCRPTQVQLRPVQVRKIEIVRKKPIFKKATVTLEDHLACKCETVAAARPVT
In the case of B1, the “induction” value is “None of the treatments specifically induced transgene expression; also recorded: No significant change in enzymatic activity”.
